{"source": "patent US10286000B2", "about": "“Retinoid X receptor-gamma agonists and retinoid X receptor-alpha antagonists for treatment of cancer” (St. Jude Children's Research Hospital, Inc., priority 2013, dated 2019)", "test_system": "ATM/ATR checkpoint pathway in HCT116 cells", "experiment": "Western blot of ATM/ATR checkpoint pathway", "assay_type": "cell-based, human", "method": "Total cell lysates were collected at various time points for Western blot analysis to detect (A) ATM (Ser1981) and ATR (Ser428) phosphorylation and (B) ULBP2 expression. Data shown are representative of three independent experiments. […] Total cell lysates were prepared at various time points (with the same total protein concentration as determined by BCA protein assay) (0 h to 24 h) for phospho-Chk1 by ELISA. Data were expressed as fold change relative to the degree of Chk1 phosphorylation at 0 h (n=3). […] Data are representative of three independent experiments. […] Data are representative of three independent experiments. […] Data shown are representative of three independent experiments. (G) The knockdown efficiencies of various siRNAs in HCT116 cells were evaluated by Western blot analysis. Results are representative of three independent experiments. […] Data shown are representative of three independent experiments. * P<0.05, ** P<0.01, *** P<0.001.", "data": [{"smiles": "CC(=O)S[C@@H]1CC2=CC(=O)CC[C@]2(C)[C@H]2CC[C@@]3(C)[C@@H](CC[C@@]34CCC(=O)O4)[C@H]12", "note": "[SPIR, spironolactone]", "values": [{"measurement": "ATM and ATR phosphorylation", "setting": "HCT116, 56 μM, time-dependent", "result": "induces ATM and ATR phosphorylation"}, {"measurement": "phosphorylated Chk2 and H2A.X", "setting": "HCT116, 24 h", "result": "an increase was also detected"}]}]}
